Laboratory results from US4775695A, “Substituted amidinoalkoxy and amidinoalkylamino indanones and salts thereof” (Merck & Co., Inc., priority 1987, dated 1988).
Where a name gives a salt, the structure may show the parent alone.

Test system: cerebrocortical cat brain tissue slices
Test: In vitro Cerebrocortical Cat Brain Tissue Slice Assay (inhibition of HCO3^- -stimulated swelling)
Conditions: 60 minutes, 37° C., 10 mM HCO3^-, 27 mM K^+
Method: See, e.g., Bourke et al., Neurochem. Res., 8, 5 (1983), and Cragoe et al., J. Med. Chem., 25, 567 (1982).
Adult cats of 2-3 kg body weight were employed in tissue slice studies. Prior to sacrifice, the animals were anesthetized with ketamine hydrochloride, 10 mg/kg intramuscularly. Eight (three control, five experimental) pial surface cerebrocortical tissue slices (0.5 mm thick; approximately 150 mg initial fresh weight) were cut successively with a calibrated Stadie-Riggs fresh tissue microtome without moistening and weighed successively on a torsion balance. During the slice preparation all operations except weighing were confined to a humid chamber. Each slice was rapidly placed in an individual Warburg flask containing 2 ml of incubation medium at room temperature. The basic composition of the incubation media was as follows: glucose, 10 mM; CaCl2, 1.3 mM; MgSO4, 1.2 mM; KHSO4, 1.2 mM; HEPES (N-2-hydroxyethylpiperazine-N'-2-ethanesulfonic acid, titrated with NaOH to pH 7.4), 20 mM. Except when adding HCO3^-, the osmolarity of the media was maintained isosmotic (approximately 285 mOsm/L) by reciprocal changes of Na^+ or K^+ to achieve a concentration of K^+ of 27 mM. The basic medium was saturated with oxygen by bubbling pure oxygen through the solution for 30 minutes before use. […]
Following the 60-minute incubation period, tissue slices were separated from incubation medium by filtration, reweighed, and homogenized in 1N HClO4 (10% w/v) for electrolyte analysis. […] Control slice swelling is expressed as microliters per gram initial preswelling fresh weight. The effectiveness of an inhibitor at a given concentration was measured by the amount of HCO3^- -stimulated swelling that occurred in its presence, computed as a percent of the maximum possible and is reported as an IC50. […] Tissue and media Na^+ and K^+ levels were determined by emission flame photometry with Li^+ internal standard; Cl^- levels were determined by amperometric titration. Tissue viability during incubation is monitored by manometry.

IC50 (hydrate) | IC50 (Felis catus, 1 h) | Structure (SMILES)
100 nM | – | CC1(C2CCCC2)Cc2cc(OCC(=N)N)c(Cl)c(Cl)c2C1=O (single isomer, unassigned; (+)) [Example 6, (+)[(2-Cyclopentyl-6,7-dichloro-2,3-dihydro-2-methyl-1-oxo-1H-inden-5-yl)oxy]ethanimidamide hydrochloride 1/4 hydrate]
5 nM | – | CC1(C2CCCC2)Cc2cc(OCC(=N)N)c(Cl)c(Cl)c2C1=O (single isomer, unassigned; (-)) [Example 7, (-)[(2-Cyclopentyl-6,7-dichloro-2,3-dihydro-2-methyl-1-oxo-1H-inden-5-yl)oxy]ethanimidamide hydrochloride 1/4 hydrate]
– | 10 nM | CC1(C2CCCC2)Cc2cc(OCC(=N)N)c(Cl)c(Cl)c2C1=O (stereo not drawn) [Example 2, [(2-Cyclopentyl-6,7-dichloro-2,3-dihydro-2-methyl-1-oxo-1H-inden-5-yl)oxy]ethanimidamide hydrochloride hemihydrate]
